The source of these data is publication PMC7209772 (Molecular microbiology, 2019).

For this experiment, the target named is T1, GacB (MxGacB, MXAN_2643), Hypr GGDEF enzyme (Myxococcus xanthus, UniProt Q1D911).
T1 sequence (Q1D911 1-364): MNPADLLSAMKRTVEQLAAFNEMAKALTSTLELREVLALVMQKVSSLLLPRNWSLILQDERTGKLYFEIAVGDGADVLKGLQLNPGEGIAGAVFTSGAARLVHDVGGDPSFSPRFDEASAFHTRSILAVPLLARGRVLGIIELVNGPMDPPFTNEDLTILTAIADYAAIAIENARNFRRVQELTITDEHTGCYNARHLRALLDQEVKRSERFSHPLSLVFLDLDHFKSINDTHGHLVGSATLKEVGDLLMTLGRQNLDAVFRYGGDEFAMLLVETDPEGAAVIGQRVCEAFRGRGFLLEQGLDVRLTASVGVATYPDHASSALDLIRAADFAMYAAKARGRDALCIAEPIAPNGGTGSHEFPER
The experiment is described as follows: LC-MS inhibition assay. In kind it is biochemical.

Turning to `Nc1nc2c(ncn2[C@@H]2O[C@@H]3CO[P@](=O)(O)O[C@H]4[C@@H](O)[C@H](n5cnc6c(=O)[nH]c(N)nc65)O[C@@H]4CO[P@](=O)(O)O[C@H]3[C@H]2O)c(=O)[nH]1` [cdiG, cyclic di-GMP], the IC50 is 17.8 µM.
